Experimental data published in patent US6057447A, “Quinoline sulfide derivatives” (Zenyaku Kogyo Kabushiki Kaisha, priority 1996, dated 2000).
In brackets after ≈: the same amount, converted by molar mass.

Each molecule was assayed on Helicobacter pylori standard strain ATCC 43526 (NCTC 11916) (assay: Antibacterial Test 1: MIC against Helicobacter pylori, agar plate dilution method (anaerobic MIC method)). Conditions: 72 h, Hp ATCC 43526, agar plate dilution, 37° C., 3 days.
Type: cell-based

| SMILES | MIC [µg/mL] |
| --- | --- |
| CS(=O)(=O)N1CCN(c2ccc(C(=O)CSc3ccnc4ccccc34)cc2)CC1 [Compound 86, 4-[2-[4-(4-Methanesulfonyl-1-piperazinyl)phenyl]-2-oxoethylthio]quinoline] | 0.0031 (≈ 0.00702 µM) |
| CCN(CC)C(=S)N1CCN(c2ccc(C(=O)CSc3ccnc4ccccc34)cc2)CC1 [Compound 54, 4-[2-[4-(4-Diethylaminothiocarbonyl-1-piperazinyl)-phenyl]-2-oxoethylthio]quinoline] | 0.0016 (≈ 0.00334 µM) |
| CSc1ccc2c(SCc3ccc(N(CCOC(C)=O)CCOC(C)=O)cc3)ccnc2c1 [Compound 47, 4-[4-[Bis(2-acetoxyethyl)amino]benzylthio]-7-methylthioquinoline] | 0.2 (≈ 0.413 µM) |
| Cl.O=C(CSc1ccnc2ccccc12)c1ccc(N2CCNCC2)cc1 [Compound 51, 4-[2-[4-(1-Piperazinyl)phenyl]-2-oxoethylthio]quinoline hydrochloride] | 0.2 |
| CC(C)(C)OC(=O)N1CCCN(c2ccc(C(=O)CSc3ccnc4ccccc34)cc2)CC1 [Compound 76, 4-[2-[4-(4-tert-Butoxycarbonyl-1-homopiperazinyl)phenyl]-2-oxoethylthio]quinoline] | 0.0062 (≈ 0.013 µM) |
| C=CCOC(=O)N1CCN(c2ccc(C(=O)CSc3ccnc4ccccc34)cc2)CC1 [Compound 83, 4-[2-[4-(4-Allyloxycarbonyl-1-piperazinyl)phenyl]-2-oxoethylthio]guinoline] | 0.0008 (≈ 0.00179 µM) |
| CC(C)(C)C(=O)N1CC=C(c2ccc(C(=O)CSc3ccnc4ccccc34)cc2)CC1 [Compound 74, 4-[2-[4-(1-Pivaloyl-1,2,5,6-tetrahydropyrid-4-yl)phenyl]-2-oxoethylthio]quinoline] | 0.0008 (≈ 0.0018 µM) |
| COc1cc(C(=O)CSc2ccnc3ccccc23)ccc1OCC1CO1 (centres unmarked) [Compound 57, 4-[2-[3-Methoxy-4-(2,3-epoxypropoxy)phenyl]-2-oxoethylthio]quinoline] | 0.39 (≈ 1.02 µM) |
| CC(C)(C)OC(=O)Nc1ccc(C(=O)CSc2ccnc3ccccc23)cc1 [Compound 30, 4-[2-(4-tert-Butoxycarbonylaminophenyl)-2-oxoethylthio]-quinoline] | 0.1 (≈ 0.253 µM) |
| COc1ccc(COc2ccc(C(=O)CSc3ccnc4ccccc34)cc2OC)cc1 [Compound 58, 4-[2-[3-Methoxy-4-(4-methoxybenzyloxy)phenyl]-2-oxoethylthio]quinoline] | 0.0031 (≈ 0.00696 µM) |
| CC(C)(C)C(=O)N1CCN(c2ccc(C(=O)CSc3ccnc4ccccc34)cc2)CC1 [Compound 52, 4-[2-[4-(4-Pivaloyl-1-piperazinyl)phenyl]-2-oxoethylthio]quinoline] | 0.0008 (≈ 0.00179 µM) |
| CSc1ccc2c(SCc3ccc(N(CCO)CCOC(C)=O)cc3)ccnc2c1 [Compound 48, 4-[4-[N-(2-Acetoxyethyl)-2-hydroxyethylamino]benzylthio]-7-methylthioquinoline] | 0.1 (≈ 0.226 µM) |
| COc1ccc(C=CC(=O)N2CCN(c3ccc(C(=O)CSc4ccnc5ccccc45)cc3)CC2)cc1 [Compound 53, 4-[2-[4-[4-(4-Methoxycinnamoyl)-1-piperazinyl]phenyl]-2-oxoethylthio]quinoline] | 0.025 (≈ 0.0477 µM) |
| CC(C)(C)CN1CCN(c2ccc(C(=O)CSc3ccnc4ccccc34)cc2Br)CC1 [Compound 66, 4-[2-[3-Bromo-4-(4-neopentyl-1-piperazinyl)phenyl]-2-oxoethylthio]quinoline] | 0.0004 (≈ 0.00078 µM) |
| OC(CSc1ccnc2ccccc12)c1ccc2ccccc2c1 (centres unmarked) [Compound 61, 4-[2-(2-Naphtyl)-2-hydroxyethylthio]quinoline] | 0.2 (≈ 0.603 µM) |
| O=C(CSc1ccnc2ccccc12)c1ccc(-c2ccccc2)cc1 [Compound 4, 4-[2-(p-Biphenyl)-2-oxoethylthio]quinoline] | 0.1 (≈ 0.281 µM) |
| CC(C)(C)OC(=O)N1CCN(c2ccc(C(=O)CSc3ccnc4ccc(F)cc34)cc2)CC1 [Compound 73, 4-[2-[4-(4-tert-Butoxycarbonyl-1-piperazinyl)phenyl]-2-oxoethylthio]-6-fluoroquinoline] | 0.0062 (≈ 0.0129 µM) |
| CC(C)CN1CC(=O)N(c2ccc(C(=O)CSc3ccnc4ccccc34)cc2)C1 [Compound 71, 4-[2-[4-(3-Isobutyl-5-oxo-1-imidazolidinyl)phenyl]-2-oxoethylthio]quinoline] | 0.05 (≈ 0.119 µM) |
| c1ccc(COc2ccc(CCSc3ccnc4ccccc34)cc2)cc1 [Compound 25, 4-[2-(4-Benzyloxyphenyl)ethylthio]quinoline] | 0.1 (≈ 0.269 µM) |
| COc1ccc(Oc2ccc(C(=O)CSc3ccnc4ccccc34)cc2)cc1 [Compound 15, 4-[2-[4-(4-Methoxyphenoxy)phenyl]-2-oxoethylthio]-quinoline] | 0.1 (≈ 0.249 µM) |
| CC(C)(C)NC(=O)N1CCN(c2ccc(C(=O)CSc3ccnc4ccccc34)cc2)CC1 [Compound 85, 4-[2-[4-[4-(N-tert-Butylcarbamoyl)-1-piperazinyl]phenyl]-2-oxoethylthio]quinoline] | 0.0031 (≈ 0.0067 µM) |
| CSc1ccc2c(SCc3ccc(N(C)C)c(N(C)C)c3)ccnc2c1 [Compound 41, 4-[3,4-Bis(dimethylamino)benzylthio]-7-methylthioquinoline] | 0.2 (≈ 0.521 µM) |
| CC(C)(C)C(=O)Nc1ccc(C(=O)CSc2ccnc3ccccc23)cc1 [Compound 19, 4-[2-(4-Pivaloylaminophenyl)-2-oxoethylthio]quinoline] | 0.1 (≈ 0.264 µM) |
| CCCCCCCNc1ccc(C(=O)CSc2ccnc3ccccc23)cc1 [Compound 69, 4-[2-[4-(Heptylamino)phenyl]-2-oxoethylthio]quinoline] | 0.025 (≈ 0.0637 µM) |

| SMILES | MIC [µg/mL] |
| --- | --- |
| COc1ccc(C(=O)CSc2ccnc3ccccc23)c(OC)c1 [Compound 6, 4-[2-(2,4-Dimethoxyphenyl)-2-oxoethylthio]quinoline] | 0.05 (≈ 0.147 µM) |
| CSc1ccc2c(SCc3ccc(N4CCCCC4)cc3)ccnc2c1 [Compound 45, 4-(4-Piperidinobenzylthio)-7-methylthioquinoline] | 0.2 (≈ 0.526 µM) |
| CNc1ccc(CSc2ccnc3cc(SC)ccc23)cc1C [Compound 39, 4-(3-Methyl-4-methylaminobenzylthio)-7-methylthioquinoline] | 0.1 (≈ 0.294 µM) |
| CC(C)CN1CCN(c2ccc(C(=O)CSc3ccnc4ccccc34)cc2)CC1 [Compound 29, 4-[2-[4-(4-Isobutyl-1-piperazinyl)phenyl]-2-oxoethylthio]quinoline] | 0.0008 (≈ 0.00191 µM) |
| CCOC(=O)N1CCN(c2ccc(C(=O)CSc3ccnc4ccccc34)cc2)CC1 [Compound 82, 4-[2-[4-(4-Ethoxycarbonyl-1-piperazinyl)phenyl]-2-oxoethylthio]quinoline] | 0.0008 (≈ 0.00184 µM) |
| CSc1ccc2c(SCc3ccc(N4CCN(C=O)CC4)cc3)ccnc2c1 [Compound 63, 4-[4-(4-Formyl-1-piperazinyl)benzylthio]-7-methylthioquinoline] | 0.1 (≈ 0.244 µM) |
| COc1ccc2c(SCc3ccc(NCC(C)C)cc3)ccnc2c1 [Compound 35, 4-(4-Isobutylaminobenzylthio)-7-methoxyquinoline] | 0.39 (≈ 1.11 µM) |
| O=C(CSc1ccnc2ccccc12)c1ccc(N2CCN(c3ncccn3)CC2)cc1 [Compound 68, 4-[2-[4-[4-(2-Pyrimidyl)-1-piperazinyl]phenyl]-2-oxoethylthio]quinoline] | 0.0016 (≈ 0.00362 µM) |
| CC(C)(C)OC(=O)N1CCN(c2ccc(C(O)CSc3ccnc4ccccc34)cc2)CC1 (centres unmarked) [Compound 87, 4-[2-[4-(4-tert-Butoxycarbonyl-1-piperazinyl)phenyl]-2-hydroxyethylthio]quinoline] | 0.0008 (≈ 0.00172 µM) |
| CSc1ccc2c(SCc3ccc(N(C)C)c(C)c3)ccnc2c1 [Compound 40, 4-(3-Methyl-4-dimethylaminobenzylthio)-7-methylthioquinoline] | 0.2 (≈ 0.564 µM) |
| CC(C)(C)C(=O)N1CCC(c2ccc(C(=O)CSc3ccnc4ccccc34)cc2)CC1 [Compound 28, 4-[2-[4-(1-Pivaloyl-4-piperidinyl)phenyl]-2-oxoethylthio]-quinoline] | 0.0008 (≈ 0.00179 µM) |
| CSc1ccc2c(SCc3ccc(NCC(=O)c4ccc5ccccc5c4)cc3)ccnc2c1 [Compound 38, 4-[4-(2-β-Naphtyl-2-oxoethylamino)benzylthio]-7-methylthioquinoline] | 0.2 (≈ 0.416 µM) |
| CN(C)S(=O)(=O)N1CCN(c2ccc(C(=O)CSc3ccnc4ccccc34)cc2)CC1 [Compound 84, 4-[2-(4-(4-Dimethylsulfamoyl-1-piperazinyl)phenyl]-2-oxoethylthio]quinoline] | 0.0016 (≈ 0.0034 µM) |
| CSc1ccc2c(SCc3ccc(N4CCCC4)cc3)ccnc2c1 [Compound 44, 4-[4-(1-Pyrrolidinyl)benzylthio]-7-methylthioquinoline] | 0.2 (≈ 0.546 µM) |
| CC(C)CN(C)CC(=O)Nc1ccc(CCSc2ccnc3ccccc23)cc1 [Compound 70, 4-[2-[4-[2-(N-Isobutyl-N-methylamino)acetylamino]-phenyl]ethylthio]quinoline] | 0.05 (≈ 0.123 µM) |
| CCNc1ccc(CSc2ccnc3cc(SC)ccc23)cc1 [Compound 36, 4-(4-Ethylaminobenzylthio)-7-methylthioquinoline] | 0.1 (≈ 0.294 µM) |
| CSc1ccc2c(SC(C)c3ccc(N(C)C)cc3)ccnc2c1 (centres unmarked) [Compound 33, 4-[1-(4-Dimethylaminophenyl)ethylthio]-7-methylthio-quinoline] | 0.2 (≈ 0.564 µM) |
| O=C(CSc1ccnc2ccccc12)c1ccc(N2CCN(c3ccc(Br)cc3)CC2)cc1 [Compound 67, 4-[2-[4-[4-(4-Bromophenyl)-1-piperazinyl]phenyl]-2-oxoethylthio]quinoline] | 0.0062 (≈ 0.012 µM) |
| CC(C)(C)OC(=O)Nc1ccc(CCSc2ccnc3ccccc23)cc1 [Compound 24, 4-[2-(4-tert-Butoxycarbonylaminophenyl)ethylthio]-quinoline] | 0.2 (≈ 0.526 µM) |
| CCCCCCOc1ccc(C(=O)CSc2ccnc3ccccc23)c(OC)c1 [Compound 55, 4-[2-[2-Methoxy-4-hexyloxyphenyl]-2-oxoethylthio]-quinoline] | 0.0062 (≈ 0.0151 µM) |
| CSc1ccc2c(SCc3ccc(N4CCN(C)CC4)cc3)ccnc2c1 [Compound 46, 4-[4-(4-Methyl-1-piperazinyl)benzylthio]-7-methylthioquinoline] | 0.1 (≈ 0.253 µM) |
| CSc1ccc2c(SCc3ccc(NCCC(C)CC(C)(C)C)cc3)ccnc2c1 (centres unmarked) [Compound 37, 4-[4-(3,5,5-Trimethylhexylamino)benzylthio]-7-methylthioquinoline] | 0.2 (≈ 0.456 µM) |
| CC(C)(C)OC(=O)N1CCN(CCc2ccc(C(=O)CSc3ccnc4ccccc34)cc2)CC1 [Compound 50, 4-[2-[4-[2-(4-tert-Butoxycarbonyl-1-piperazinyl)ethyl]-phenyl]-2-oxoethylthio]quinoline] | 0.05 (≈ 0.102 µM) |
